Assays:
[1] = test system: α-SMA-positive cells (stellate cells) in mouse liver; assay: TAA-induced activation of HSCs in mice: α-SMA immunostaining of liver sections; assay type: in vivo
Description: (§1) For immunohistochemical analysis, liver samples were fixed in 4% paraformaldehyde, embedded in paraffin, and then sectioned. The sections were stained with HE or PSR. In addition, the paraffin-embedded sections were subjected to immunostaining using an α-SMA monoclonal antibody (1:500, catalog No. A5228, manufactured by Sigma-Aldrich) and an F4/80 monoclonal antibody (1:200, catalog No. MCA497GA, manufactured by AbD Serotec). The cell specimens were observed using a microscope (BZ-X700 series, manufactured by Keyence) or a confocal laser microscope (FV1000, manufactured by Olympus Corporation). The number of F4/80-positive cells was counted in four high-power fields per section. The α-SMA-positive area and the PSR-positive area were quantified using the image analysis software Fiji-ImageJ (1.54f).
In accordance with Example 15, immunostaining of α-SMA in liver sections and observation by fluorescence microscopy were performed for the normal control group, the TAA group, and the TAA+IMG group, and for a TAA+Clo group, which was treated in the same manner as the TAA+IMG group except that clodronate, instead of imeglimin, was administered at 30 mg/kg by blending it in the drinking water from 1 week after the start of TAA administration.

mouse auricle = assay: Topical solutions on imiquimod-induced psoriasis (Example 21); assay type: in vivo; details: for degree of auricular thickening: N=2 (FIG. 44)
Method: On Days 1, 2, 3, 5, and 6, 62.5 mg of 5% imiquimod cream (Beselna Cream 5%) was applied to auricles of wild-type mice (IMQ) or VNUT knockout mice (VNUT KO+IMQ) to induce psoriatic symptoms. […] For a negative control, only 20% glycerin solution was applied. In IMQ+1% IMG and IMQ+0.1% IMG, 20% glycerin solution supplemented with 1% (w/v) imeglimin and 0.1% (w/v) imeglimin, respectively, was applied immediately after the imiquimod application. Further, in IMQ+1% Clo and IMQ+0.1% Clo, 20% glycerin solution supplemented with 1% (w/v) clodronate and 0.1% (w/v) clodronate, respectively, was applied immediately after the imiquimod application.

[2] = test system: MCD diet-induced NASH model; details: administration of clodronate, Non Patent Literature 4; cited from earlier work
[3] = test system: ATP-loaded vesicles of keratinocytes; assay: Accumulation of MANT-ATP in granules of keratinocytes (confocal microscopy); assay type: cell-based, human; details: 10 μM imeglimin, 19 hours, 0.3 mM MANT-ATP (FIG. 13)
Method: Keratinocytes were cultured in the same manner as in Example 8. Keratinocytes were cultured at 4×10^4 cells/ml in a glass-bottom dish (35 mm, manufactured by Matsunami Glass Ind., Ltd.) at 37° C. in 5% CO2 for 2 days. The culture medium was then replaced with a medium supplemented with MANT-ATP (manufactured by Invitrogen) at a final concentration of 0.3 mM, and further incubation was performed for 4.5 hours. Subsequently, imeglimin was added thereto to a final concentration of 10 μM, and further incubation was performed at 37° C. in 5% CO2 for 19 hours. Thereafter, the cells were washed twice with HBSS (manufactured by Gibco) and observed using an inverted confocal laser microscope (FV-1000 OSR, manufactured by Olympus Corporation).

mouse liver = assay: Thioacetamide-induced hepatic fibrosis in mice: histology, immunostaining and fibrosis score; assay type: in vivo; details: 200 mg/kg p.o. three times per week
Method: Wild-type mice, […] (manufactured by Charles River Japan), were housed on a 12-hour light/dark cycle and fed a standard solid diet (5.4% fat, CRF-1, manufactured by Oriental Yeast Co., Ltd.) ad libitum. Thioacetamide (TAA, manufactured by FUJIFILM Wako Pure Chemical Corporation) was dissolved in physiological saline at 0.9% w/v. Eight-week-old mice were randomly assigned to three groups and continuously treated for 9 weeks according to the following scheme. At Week 9, all mice were euthanized 1 hour after administration of physiological saline or IMG.
Normal control group (N=6): Physiological saline was intraperitoneally administered to mice three times per week. Eight hours after each administration, a vehicle was orally administered to the mice.
TAA group (N=6): TAA (50 mg/kg, intraperitoneal) was administered to mice. Eight hours thereafter, physiological saline was orally administered to the mice. This treatment was performed three times per week for a total of 9 weeks.
TAA+IMG group (N=6): During the first week, physiological saline was orally administered to mice. Thereafter, imeglimin (IMG) at 200 mg/kg was orally administered three times per week for 8 weeks. The administration of IMG was performed 8 hours after intraperitoneal administration of TAA (50 mg/kg).
as §1
A histological score was determined by a blinded investigator using the NAFLD histological scoring system of the Nonalcoholic Steatohepatitis Clinical Research Network. The total NAFLD activity score (NAS) was calculated from the total of the individual scores for steatosis ([…]), lobular inflammation (F4/80), and hepatocyte ballooning. The range of each parameter was 0 to 2 (ballooning) or 3 (the other two scores), where 0 indicates normal and 2 or 3 indicates severe. Staging of fibrosis was based on the NASH fibrosis stages, and a fibrosis stage ranging from 0 to 4 was determined according to Reference H (David E. Kleiner et al., 2005, Design and validation of a histological scoring system for nonalcoholic fatty liver disease, Hepatology, 41, 1313-1321).
All results are expressed as the mean±standard error of the mean (S.E.M.). Statistical analyses were performed using GraphPad Prism 7.0 (GraphPad Software). Significance upon comparison between two groups was evaluated by an unpaired two-tailed Student's t-test. […]. Statistical significance among three or more groups was determined by two-way analysis of variance (ANOVA) with Tukey's or Dunnett's post hoc test. Coloc2 was used to perform image analysis, automatic thresholding, and pixel intensity correlation for statistical processing. Statistical significance was assumed when the P value was <0.05.

keratinocytes = assay: Imiquimod-induced ATP secretion in keratinocytes; assay type: cell-based, human; details: 18 hours, N=8 (FIG. 32)
Method: In the same manner as in Example 1, keratinocytes were cultured at 2.5×10^4 cells/well in a 24-well plate at 37° C. in 5% CO2 for 4 days. The medium was replaced with HBSS (manufactured by Gibco) supplemented with 1 μM or 10 μM imeglimin, and incubation was performed at 37° C. in 5% CO2 for 18 hours. Thereafter, imiquimod was added thereto at 1 μg/ml or 0.5 μg/ml, and incubation was performed for 15 minutes, followed by collection of 200 μl of the supernatant. The supernatant was immediately treated on a heat block at 95° C. for 10 minutes, and ATP in the supernatant was quantified using a ATP Assay Kit—Luminescence (manufactured by Dojindo) (N=8).

[4] = topical 0.1% (w/v) in 20% glycerin solution after imiquimod
[5] = topical 1% (w/v) in 20% glycerin solution after imiquimod

| SMILES | TAA-induced increase in α-SMA-positive reaction ([1]; 30 mg/kg clodronate in drinking water (FIG. 29)) | auricular thickness compared with imiquimod-treated VNUT knockout mice (mouse auricle; topical 0.1% (w/v)) | degree of auricular thickening (mouse auricle; [4]) | auricular thickness compared with imiquimod-treated VNUT knockout mice (mouse auricle; topical 1% (w/v)) | degree of auricular thickening (mouse auricle; [5]) | NASH activity score, inflammatory cell infiltration, and hepatic fibrosis [2] | α-SMA immunostaining, effect compared with clodronate ([1]; imeglimin 200 mg/kg p.o. (FIG. 30)) | concentration dependence of effect on auricular thickening (mouse auricle; topical 0.1% and 1% (w/v)) | accumulation of MANT-ATP in granules [3] | destruction of the lobular structure, hepatocyte ballooning, and inflammatory cell infiltration (mouse liver; 8 weeks) | fibrosis stage (mouse liver; 8 weeks) | TAA-induced increase in F4/80-positive macrophages (mouse liver; 8 weeks (FIG. 27)) | TAA-induced increase in α-SMA-positive reaction (mouse liver; 8 weeks (FIG. 27)) | TAA-induced increase in fibrosis score (mouse liver; 8 weeks (FIG. 28)) | PSR staining-positive area (mouse liver; 8 weeks, TAA+IMG vs TAA group, N=6) | imiquimod-promoted ATP secretion (keratinocytes; 1 μM imeglimin) | imiquimod-promoted ATP secretion (keratinocytes; 10 NM imeglimin (so in the source)) |
| --- | --- | --- | --- | --- | --- | --- | --- | --- | --- | --- | --- | --- | --- | --- | --- | --- | --- |
| O=P(O)(O)C(Cl)(Cl)P(=O)(O)O [clodronate] | markedly suppressed | about the same | improved | about the same | improved | improves | – | – | – | – | – | – | – | – | – | – | – |
| C[C@@H]1N=C(N)NC(N(C)C)=N1 [imeglimin] | – | – | no effect | about the same | improved | – | effect similar to that of clodronate | concentration-dependent | absent | reduced | reducing the fibrosis stage | strongly suppressed | strongly suppressed | suppressed | significantly reduced | strongly inhibited | strongly inhibited |

— patent US20260306500A1, “METHOD OF INHIBITING ADENOSINE TRIPHOSPHATE SECRETION, METHOD OF INHIBITING HEPATIC STELLATE CELL ACTIVATION, METHOD OF DEACTIVATING HEPATIC STELLATE CELL, METHOD OF TREATING HEPATIC FIBROSIS, METHOD OF TREATING NON-ALCOHOLIC STEATOHEPATITIS, AND METHOD OF TREATING PSORIASIS” (Kurume University, priority 2023, published 2026)
